# Experimental data: article PMC5011342, “A high throughput drug screening assay to identify compounds that promote oligodendrocyte differentiation using acutely dissociated and purified oligodendrocyte precursor cells” (BMC Research Notes, 2016)
# Where two headings read alike, the source gives them in different places.
# Legend:
# [1] = tested on: acutely dissociated and purified rat OPCs; test: Acute OL differentiation assay (MBP expression/cell, immunofluorescent image quantification); type: cell-based; conditions: Rattus norvegicus
# Outline: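 This acute differentiation assay used purified rat OPCs from postnatal day 6–7 pups, seeded into PDL/laminin-coated 96-well plates in differentiation medium lacking PDGF and FGF. Compounds were applied in quadruplicate after a 1–2 h preincubation at 37 °C, 10 % CO2, with 0.1 % DMSO negative and 40 ng/ml T3 positive controls in eight wells. After fixation on DIV4, anti-MBP immunofluorescence images yielded MBP expression/cell.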
# [2] = tested on: expanded OPCs; test: cells; conditions: for 0.1 µM (% DMSO) / 1 µM (% DMSO) / 10 µM (% DMSO): alamarBlue viability of expanded OPCs, relative to DMSO control; for 0.1 µM (% DMSO): compound at 0.1 µM; for 1 µM (% DMSO): compound at 1 µM; for 10 µM (% DMSO): compound at 10 µM; for viability at 0.1 µM / viability at 1 µM / viability at 10 µM: Rattus norvegicus, 72 h
# Outline: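 Toxicity screen: compounds added at 0.1, 1 and 10 µM to PDGF-AA-expanded OPCs in 96-well plates, 3-day incubation at 37 °C, 10% CO2, then alamarBlue 1:10 for 4 h with fluorescence readout. Results set screening doses of 10/2, 2/0.4 or 0.4/0.08 µM.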
# [3] = test compound at 2 uM, MBP expression relative to quetiapine, NCC library screen, sheet "All OLga data", read-out: 2 uM (% Quet)
# [4] = test compound at 10 uM, MBP expression relative to quetiapine, NCC library screen, sheet "All OLga data", read-out: 10 uM (% Quet)
# [5] = test compound at 2 uM, NCC library screen, sheet "All OLga data", relative to quetiapine, read-out: 2 uM (% Quet)
# [6] = test compound at 10 uM, NCC library screen, sheet "All OLga data", relative to quetiapine, read-out: 10 uM (% Quet)
# [7] = 2 uM test compound, relative to quetiapine, sheet "All OLga data", read-out: OL differentiation, 2 uM (% Quet)
# [8] = 10 uM test compound, relative to quetiapine, sheet "All OLga data", read-out: OL differentiation, 10 uM (% Quet)
# [9] = read-out: 0.1 µM (% DMSO), alamarBlue viability of expanded OPCs, compound at 0.1 µM, sheet All Tox data
# [10] = read-out: 1 µM (% DMSO), alamarBlue viability of expanded OPCs, compound at 1 µM, sheet All Tox data
# [11] = read-out: 10 µM (% DMSO), alamarBlue viability of expanded OPCs, compound at 10 µM, sheet All Tox data
# [12] = read-out: 0.1 µM (% DMSO), alamarBlue viability, NCC library compound at 0.1 µM, sheet "All Tox data"
# [13] = read-out: 1 µM (% DMSO), alamarBlue viability, NCC library compound at 1 µM, sheet "All Tox data"
# [14] = read-out: 10 µM (% DMSO), alamarBlue viability, NCC library compound at 10 µM, sheet "All Tox data"
compound,measurement,setting,value
CO/N=C(\C(=O)N[C@@H]1C(=O)N2C(C(=O)O)=C(COC(C)=O)CS[C@H]12)c1csc(N)n1 [Cefotaxime],activation at 2 µM,[1]; [3],9.9%
same,activation at 10 µM,[1]; [4],8.5%
same,0.1 µM (% DMSO),[2],97.0 % DMSO
same,1 µM (% DMSO),[2],88.3 % DMSO
same,10 µM (% DMSO),[2],82.3 % DMSO
CO[C@@]1(NC(=O)Cc2cccs2)C(=O)N2C(C(=O)O)=C(COC(N)=O)CS[C@@H]21 [Cefoxitin],activation at 2 µM,[1]; [5],4.1%
same,activation at 10 µM,[1]; [6],0.14%
same,0.1 µM (% DMSO),[2],88.0 % DMSO
same,1 µM (% DMSO),[2],88.0 % DMSO
same,10 µM (% DMSO),[2],85.5 % DMSO
COCC1=C(C(=O)OC(C)OC(=O)OC(C)C)N2C(=O)[C@@H](NC(=O)/C(=N\OC)c3csc(N)n3)[C@H]2SC1 (some centres unmarked) [Cefpodoxime proxetil],activation at 2 µM,[1]; [7],-7.7%
same,activation at 10 µM,[1]; [8],-20.6%
same,viability at 0.1 µM,[2]; [9],96.9%
same,viability at 1 µM,[2]; [10],90.7%
same,viability at 10 µM,[2]; [11],98%
CO/N=C(\C(=O)N[C@@H]1C(=O)N2C(C(=O)O)=C(COC(N)=O)CS[C@H]12)c1ccco1 [Cefuroxime],activation at 2 µM,[1]; [3],13.5%
same,activation at 10 µM,[1]; [4],13.9%
same,0.1 µM (% DMSO),[2],91.1 % DMSO
same,1 µM (% DMSO),[2],94.9 % DMSO
same,10 µM (% DMSO),[2],91.5 % DMSO
Cc1ccc(-c2cc(C(F)(F)F)nn2-c2ccc(S(N)(=O)=O)cc2)cc1 [Celecoxib],activation at 2 µM,[1]; [3],14.8%
same,activation at 10 µM,[1]; [4],9%
same,0.1 µM (% DMSO),[2],94.3 % DMSO
same,1 µM (% DMSO),[2],89.6 % DMSO
same,10 µM (% DMSO),[2],87.2 % DMSO
CC1=C(C(=O)O)N2C(=O)[C@@H](NC(=O)[C@H](N)c3ccccc3)[C@H]2SC1 [Cephalexin],activation at 2 µM,[1]; [7],-1.3%
same,activation at 10 µM,[1]; [8],-4.5%
same,viability at 0.1 µM,[2]; [9],103%
same,viability at 1 µM,[2]; [10],110%
same,viability at 10 µM,[2]; [11],112%
COCc1c(C(C)C)nc(C(C)C)c(/C=C/[C@@H](O)C[C@@H](O)CC(=O)O)c1-c1ccc(F)cc1 [Cerivastatin],activation at 0.4 µM,"[1]; 0.4 uM test compound, relative to quetiapine, sheet ""All OLga data"", read-out: OL differentiation, 0.4 uM (% Quet)",-38.8%
same,activation at 2 µM,[1]; [7],-191%
same,viability at 0.1 µM,[2]; [9],97.3%
same,viability at 1 µM,[2]; [10],52.3%
same,viability at 10 µM,[2]; [11],11.5%
O=C(O)COCCN1CCN(C(c2ccccc2)c2ccc(Cl)cc2)CC1 (centres unmarked) [Cetirizine],activation at 2 µM,[1]; [5],9.7%
same,activation at 10 µM,[1]; [6],9.5%
same,viability at 0.1 µM,[2]; [12],92.3%
same,viability at 1 µM,[2]; [13],89.3%
same,viability at 10 µM,[2]; [14],87.4%
NC[C@H]1CC[C@H](C(=O)Oc2ccc(CCC(=O)O)cc2)CC1 [Cetraxate],activation at 2 µM,[1]; [7],-6.2%
same,activation at 10 µM,[1]; [8],-5.4%
same,viability at 0.1 µM,[2]; [9],103%
same,viability at 1 µM,[2]; [10],92.1%
same,viability at 10 µM,[2]; [11],104%
C[C@H](CCC(=O)O)[C@H]1CC[C@H]2[C@@H]3[C@H](O)C[C@@H]4C[C@H](O)CC[C@]4(C)[C@H]3CC[C@]12C [Chenodeoxycholic Acid],activation at 2 µM,[1]; [5],-24.3%
same,activation at 10 µM,[1]; [6],-7.9%
same,0.1 µM (% DMSO),[2],111.3 % DMSO
same,1 µM (% DMSO),[2],107.5 % DMSO
same,10 µM (% DMSO),[2],110.8 % DMSO
O=C(O)CCCc1ccc(N(CCCl)CCCl)cc1 [Chlorambucil],activation at 2 µM,[1]; read-out: 2 uM (% Quet),-18.6%
same,activation at 10 µM,[1]; read-out: 10 uM (% Quet),-105%
same,viability at 0.1 µM,[2]; read-out: 0.1 µM (% DMSO),88%
same,viability at 1 µM,[2]; read-out: 1 µM (% DMSO),80.8%
same,viability at 10 µM,[2]; read-out: 10 µM (% DMSO),57.4%
O=C(N[C@H](CO)[C@H](O)c1ccc([N+](=O)[O-])cc1)C(Cl)Cl [Chloramphenicol],activation at 2 µM,[1]; [3],9.3%
same,activation at 10 µM,[1]; [4],1.1%
same,0.1 µM (% DMSO),[2],87.1 % DMSO
same,1 µM (% DMSO),[2],93.2 % DMSO
same,10 µM (% DMSO),[2],90.9 % DMSO
CNC1=Nc2ccc(Cl)cc2C(c2ccccc2)=[N+]([O-])C1 [Chlordiazepoxide],activation at 2 µM,[1]; [5],-0.9%
same,activation at 10 µM,[1]; [6],23.8%
same,viability at 0.1 µM,[2]; [12],91.2%
same,viability at 1 µM,[2]; [13],93.8%
same,viability at 10 µM,[2]; [14],90.6%
NS(=O)(=O)c1cc2c(cc1Cl)N=CNS2(=O)=O [Chlorothiazide],activation at 2 µM,[1]; [5],-11.1%
same,activation at 10 µM,[1]; [6],-11.8%
same,0.1 µM (% DMSO),[2],88.9 % DMSO
same,1 µM (% DMSO),[2],90.2 % DMSO
same,10 µM (% DMSO),[2],89.0 % DMSO
Oc1c(Cl)cc(Cl)c2cccnc12 [Chloroxine],activation at 0.08 µM,"[1]; test compound at 0.08 uM, NCC library screen, sheet ""All OLga data"", relative to quetiapine, read-out: 0.08 uM (% Quet)",-87.1%
same,0.1 µM (% DMSO),[2],24.3 % DMSO
same,1 µM (% DMSO),[2],10.2 % DMSO
same,10 µM (% DMSO),[2],8.9 % DMSO
